Results taken from patent US20040067561A1, “Process for the production of L-lysine using coryneform bacteria” (priority 2002, published 2004).

Test system: Corynebacterium glutamicum strain DSM13994_Hdap_s
Assay: Screening on LB agar plates containing 4-hydroxydiaminopimelic acid (growth of colonies)
Assay type: cell-based
Conditions: 10 g/l in LB agar, observed over 48 hours; UV mutant clone DSM13994_Hdap_s compared to parent DSM13994
Description: For screening on colonies that are sensitive to 4-hydroxy-diaminopimelic acid, the strain DSM13994 after UV mutagenesis (Sambrook et al., Molecular Cloning: A Laboratory Manual. 2nd Edition, Cold Spring Harbor, New York, 1989) is plated out on LB agar plates containing 4-hydroxydiaminopimelic acid. The agar plates are supplemented with 10 g/l of 4-hydroxydiaminopimelic acid. The growth of the colonies is observed over 48 hours. At this concentration mutants sensitive to 4-hydroxydiamino-pimelic acid may be differentiated from the unaltered parent strain by a delayed growth. […] The strain is identified as DSM13994_Hdap_s.

## N[C@H](CC(O)C[C@H](N)C(=O)O)C(=O)O (stereo partly shown) [4-hydroxydiaminopimelic acid]
  growth of the colonies: substantially delayed growth
